According to patent publication US12146005B2, “Compositions and methods for treatment of fungal infections” (THE UNIVERSITY OF SOUTHERN CALIFORNIA, priority 2019, dated 2024):
≈ marks a conversion by molar mass, not a printed value. Entries after “also recorded” stand apart in the source; their conditions may differ. Where two headings read alike, the source gives them in different places. Bridge positions count the residues as written; N and C are the ends.

How the values were obtained:
C. albicans SC5314 [1] = assay: In vivo model of disseminated candidiasis in BALB/c mice (survival, body weight, renal fungal burden); conditions: for survival efficacy relative to MTD1280: candidemia model, survival as metric, 0.1 mg/kg versus MTD1280 0.25 mg/kg, FIGS. 10 to 13; for renal fungal burden reduced to a greater extent than fluconazole, P (Fisher's LSD test): peptide 0.1 or 0.25 mg/kg versus fluconazole 5 mg/kg; for survival by end point analysis versus fluconazole: χ^2 analysis at day 30 p.i.; for survival compared to saline controls, P (log-rank analysis): observed 26 days p.i.; for survival compared to saline controls, P (log-rank analysis) / survival efficacy, comparison in words: FIG. 8
Protocol: Mice were infected i.v. at T=0 with 3×105 blastospores of C. albicans SC5314.
Mice were infected i.v. at T=0 with 3×10^5 blastospores of C. albicans SC5314. At T=24 h, mice were treated i.p. daily for 7 d w.
Suitable cyclic tetradecapeptides can be identified by screening against a murine model for disseminated candidiasis. C. albicans SC5314 obtained from American Type Culture Collection can be used as a suitable reference strain. […] Typical antifungal drugs include caspofungin and fluconazole. Cyclic tetradecapeptides to be tested and antifungal drugs can be suspended or dissolved in water or isotonic saline and administered by one or more of intravenous, subcutaneous, intramuscular, and/or intraperitoneal injection.
In vitro activity of synthetic cyclic tetradecapeptides and antifungal compounds can be determined using conventional culture techniques that are known in the art as described above in relation to RTD-1, and can be used to determine sub-antifungal concentrations. Systemic or disseminated candidiasis can be modeled in vivo by, for example, challenging BALB/c female mice with 0.15 to 2 mL of C. albicans (reference strain or resistant strain) at from about 2×10^5 to about 2×10^7 CFU/mL of the organism. Animals can the be treated with candidate synthetic cyclic tetradecapeptide before challenge with the pathogen, at the time of pathogen challenge, or after challenge with the pathogen. Antifungal drugs and/or candidate synthetic cyclic tetradecapeptide can be administered by intravenous, subcutaneous, intramuscular, and/or intraperitoneal injection in such an in vivo model of systemic or disseminated candidiasis.
In activity studies the synthetic cyclic tetradecapeptide MTD1280 (SEQ ID NO. 6), which was identified initially as having significant antifungal activity, was used as a model peptide. Briefly, 7-8 week old, immunocompetent, female BALB/c mice were challenged i.v. at T=0 with 3×10^5 CFU of C. albicans SC5314. […] As shown, caspofungin (Caspo) is not effective against this strain of C. albicans.
Candidate synthetic cyclic tetradecapeptides were pre-screened for tolerance by determining a lack of toxicity when administered at >5 mg/kg.

C. albicans SC5314 [2] = conditions: strain SC5314, cited from earlier work
C. albicans strain 53264 = conditions: cited from earlier work
C. albicans strain 43001 = conditions: cited from earlier work
[3] = system: susceptible and multiple drug resistant strains of C. albicans; conditions: cited from earlier work
C. albicans [4] = assay: In vitro antifungal activity, sub-antifungal concentration, C. albicans in general; type: cell-based, Candida albicans; conditions: in the presence of serum
Source text: Within the context of this application, a “sub-antifungal concentration” in regard to a fungal pathogen should be understood to be a concentration at which the compound so described has no antifungal effect when applied to the fungal pathogen in vitro (e.g. in a liquid culture medium), e.g. in the absence of host immune effectors.
Basso et al. (Basso et al., “Rhesus theta defensin 1 promotes long term survival in systemic candidiasis by host directed mechanisms” Nature Scientific Reports (2019) 9: 16905) provides an example of determination of sub-antifungal concentration for the native θ-defensin RTD-1 in regard to different strains of Candida albicans. Cultures of different strains of C. albicans were established in RPMI media or RPMI media containing 50% serum. […] MFC was determined as the lowest concentration that provided 99% killing relative to the input inoculum. MIC was determined as the lowest concentration that inhibited growth.
Based on such data, for C. albicans a sub-antifungal concentration of RTD-1 in the presence of serum would be less than 100 μg/mL. Such sub-antifungal concentrations can be determined experimentally (for example, by culture from a patient sample) or, preferably, from historical data. […]

C. albicans [5] = conditions: cited from earlier work
[6] = long term survivors 30 days p.i., FIG. 14
[7] = RPMI, lowest concentration giving 99% killing
[8] = RPMI, lowest concentration that inhibited growth
[9] = 5 mg/kg i.p. daily for 7 d from 24 h p.i.
[10] = 5 mg/kg i.p. once a day for 7 days

For “MTD1288: synthetic cyclic tetradecapeptide θ-defensin analog, SEQ ID NO. 5, two disulfide bonds (cyclo(GLCICRRRACLCRR); disulfide (positions not given here))”, the “survival efficacy relative to MTD1280” value (C. albicans SC5314 [1]) was “equivalent or superior to MTD1280”, the “renal fungal burden reduced to a greater extent than fluconazole, P (Fisher's LSD test)” value (C. albicans SC5314 [1]; [6]) was 0.02 and the “survival by end point analysis versus fluconazole” value (C. albicans SC5314 [1]; fluconazole 5 mg/kg) was “more effective than fluconazole”.
For `CC[C@H](C)C[C@H](C)CCCCCCCCC(=O)N[C@H]1C[C@@H](O)[C@@H](NCCN)NC(=O)[C@@H]2[C@@H](O)CCN2C(=O)[C@H]([C@H](O)CCN)NC(=O)[C@H]([C@H](O)[C@@H](O)c2ccc(O)cc2)NC(=O)[C@@H]2C[C@@H](O)CN2C(=O)[C@H]([C@@H](C)O)NC1=O` [Caspofungin, caspofungin], the MFC (C. albicans SC5314 [2]; [7]) is listed as >256 µg/mL, the MIC (C. albicans SC5314 [2]; [8]) is listed as 0.06 µg/mL (≈ 0.0549 µM) and the MFC (C. albicans strain 53264; RPMI) is listed as >8 µg/mL. The MIC (C. albicans strain 53264; RPMI) was >8 µg/mL, the “survival compared to saline controls, P (log-rank analysis)” value (C. albicans SC5314 [1]; [9]) was 3.4×10^−6 and the “survival efficacy, comparison in words” value (C. albicans SC5314 [1]; [10]) was “not effective”. For the same molecule, the MFC (C. albicans strain 43001; RPMI) was 2 µg/mL (≈ 1.83 µM) and the MIC (C. albicans strain 43001; RPMI) was 2 µg/mL (≈ 1.83 µM).
With “MTD1280: model synthetic cyclic tetradecapeptide θ-defensin analog, SEQ ID NO. 6, used as reference peptide (GVCICRRRFCLCRR; cyclic; Synthetic cyclic peptide MTD1280)” the survival benefit (C. albicans SC5314 [1]; 0.1 mg/kg i.p. once a day for 7 days, FIG. 9) was “no survival benefit”, the “survival compared to saline controls, P (log-rank analysis)” value (C. albicans SC5314 [1]; 0.25 mg/kg i.p. daily for 7 d from 24 h p.i.) was 2.3×10^−7 and the “survival efficacy, comparison in words” value (C. albicans SC5314 [1]; 0.25 mg/kg i.p. once a day for 7 days) was “more effective than 5 mg/kg of RTD-1; also recorded: more effective than 5 mg/kg of fluconazole”. The “transient mean reduction in bodyweight” value (C. albicans SC5314 [1]; long term surviving treated candidemic mice, plateaued by day 10) was 15%, the “share of cohort that regained initial body weights” value (C. albicans SC5314 [1]; long term surviving treated mice; by day 3)) was 90% and the “renal fungal burden reduced to a greater extent than fluconazole, P (Fisher's LSD test)” value (C. albicans SC5314 [1]; [6]) was 3×10^−3.
With “MTD12811: synthetic cyclic tetradecapeptide θ-defensin analog, SEQ ID NO. 3, two disulfide bonds (cyclo(GVCSCRRRFCICRR); disulfide (positions not given here))” the “survival efficacy relative to MTD1280” value (C. albicans SC5314 [1]) was “equivalent or superior to MTD1280”.
In the case of “MTD12810: synthetic cyclic tetradecapeptide θ-defensin analog, SEQ ID NO. 2, two disulfide bonds (Cys3-Cys12, Cys5-Cys10) (cyclo(GVCSCRRRFCLCRR); disulfide 5-10, 3-12)”, the “survival efficacy relative to MTD1280” value (C. albicans SC5314 [1]) is reported as “equivalent or superior to MTD1280”, the “renal fungal burden reduced to a greater extent than fluconazole, P (Fisher's LSD test)” value (C. albicans SC5314 [1]; [6]) is reported as 3.5×10^−5 and the “survival by end point analysis versus fluconazole” value (C. albicans SC5314 [1]; fluconazole 5 mg/kg) is reported as “more effective than fluconazole”.
For “RTD-1: naturally occurring rhesus θ-defensin, cyclic octadecapeptide with three disulfide bonds, SEQ ID NO. 1 (cyclo(GFCRCLCRRGVCRCICTR); disulfide (positions not given here); listed as Macaca mulatta)”, the “long term production of pro-inflammatory cytokines” value ([3]; in vivo, treatment with RTD-1) is listed as “reduction in long term production of pro-inflammatory cytokines”, the “efficacy in animal models of systemic candidiasis” value ([3]; susceptible and multiple drug resistant strains) is listed as “effective” and the MFC (C. albicans SC5314 [2]; 50% serum) is listed as >100 µg/mL. For the same molecule, the MIC (C. albicans SC5314 [2]; 50% serum) was >100 µg/mL, the MFC (C. albicans SC5314 [2]; [7]) was 25 µg/mL and the MIC (C. albicans SC5314 [2]; [8]) was 12.5 µg/mL. The MFC (C. albicans strain 53264; 50% serum) was >100 µg/mL, the MIC (C. albicans strain 53264; 50% serum) was >100 µg/mL and the MFC (C. albicans strain 53264; RPMI) was 12.5 µg/mL. For the same molecule, the MIC (C. albicans strain 53264; RPMI) was 12.5 µg/mL, the sub-antifungal concentration (C. albicans [4]) was “less than 100 μg/mL” and the “survival compared to saline controls, P (log-rank analysis)” value (C. albicans SC5314 [1]; [9]) was 3.4×10^−6. For the same molecule, the “survival efficacy, comparison in words” value (C. albicans SC5314 [1]; [10]) was “more effective than 5 mg/kg of fluconazole”, the MFC (C. albicans strain 43001; 50% serum) was >100 µg/mL and the MIC (C. albicans strain 43001; 50% serum) was >100 µg/mL. The MFC (C. albicans strain 43001; RPMI) was 12.5 µg/mL, the MIC (C. albicans strain 43001; RPMI) was 6.25 µg/mL and the “in vitro antifungal activity in the presence of serum” value (C. albicans [5]; in vitro studies, serum) was “abolished by the presence of serum”. The “in vitro concentration required relative to concentrations effective in vivo” value (C. albicans [5]; in vitro versus murine model) was ≥ 50 fold.
In the case of “MTD1283: synthetic cyclic tetradecapeptide θ-defensin analog, SEQ ID NO. 4, two disulfide bonds (cyclo(GVCICRRRVCICRR); disulfide (positions not given here))”, the “survival efficacy relative to MTD1280” value (C. albicans SC5314 [1]) is reported as “equivalent or superior to MTD1280”, the “renal fungal burden reduced to a greater extent than fluconazole, P (Fisher's LSD test)” value (C. albicans SC5314 [1]; [6]) is reported as 7.4×10^−3 and the “survival by end point analysis versus fluconazole” value (C. albicans SC5314 [1]; fluconazole 5 mg/kg) is reported as “more effective than fluconazole”.
For `OC(Cn1cncn1)(Cn1cncn1)c1ccc(F)cc1F` [Fluconazole, fluconazole], the MIC (C. albicans SC5314 [2]; [8]) is listed as 64 µg/mL (≈ 209 µM), the “survival compared to saline controls, P (log-rank analysis)” value (C. albicans SC5314 [1]; [9]) is listed as 3.4×10^−6 and the “renal fungal burden in kidney homogenates” value (C. albicans SC5314 [1]; long term survivors 30 days p.i., peptide 0.1 or 0.25 mg/kg, fluconazole 5 mg/kg, FIG. 14) is listed as “reduced fungal burden”.
